Reference: patent US10463632B2, “Method for treating a neurovascular complication of diabetes mellitus” (KING SAUD UNIVERSITY, priority 2016, dated 2019)

What was measured:
Format in all cases: in vivo, Sprague Dawley rats
[1] = tested on: Streptozotocin (STZ)-induced diabetic rats; assay: Blood glucose concentration in STZ-induced diabetic rats with thymoquinone administration; details: TQ 2 mg/Kg intraperitoneally on alternate days
Experimental: (§1) Healthy Sprague Dawley rats (150-200 g) were used for the trials. Animals were issued from Central Animal House Facility of the College of Pharmacy, King Saud University and were kept in standard plastic animal cages in groups of 6 animals each with 12 hours light and dark cycle at 25±2° C. The rats were fed on standard rat chow and provided water ad libitum. The animals were acclimatized to laboratory conditions for a week prior to experiments. Diabetes was induced in overnight fasted rats by administration of Streptozotocin (STZ) at dose of 55 mg/kg intraperitoneally in citric acid buffer (pH 4.5). After one hour of STZ administration, the animals were allowed to feed ad libitum. The animals were kept under observation and fasting blood glucose levels were estimated […] 72 hours of STZ treatment. Animals showing blood glucose levels >350 mg/dl were considered as diabetic and were used for further trials. Diabetic rats were divided into two groups (10 rats per group) at random. Group I served as diabetic control. Group II were administered thymoquinone (2 mg/kg intraperitoneally) in alternate days for three weeks. Healthy rats were also kept as normal controls. Relevant biochemical parameters including serum creatinine, uric acid, alanine aminotransferase (ALT), aspartate aminotransferase (AST), alkaline phosphatase and bilirubin were assessed using colorimetric methods.

[2] = tested on: Streptozotocin (STZ)-induced diabetic rats; assay: Kidney and liver function tests (colorimetric serum biochemistry) in STZ-induced diabetic rats
Experimental: as §1

[3] = tested on: brain derived neurotrophic factor (BDNF); assay: Western blot of retinal BDNF expression in diabetic rats; details: diabetic rat retinas, thymoquinone 2 mg/kg i.p. alternate days, three weeks; FIG. 1A
Experimental: (§2) Healthy Sprague Dawley rats (150-200 g) were used for the trials. Animals were issued from Central Animal House Facility of the College of Pharmacy, King Saud University and were kept in standard plastic animal cages in groups of 6 animals each with 12 hours light and dark cycle at 25±2° C. The rats were fed on standard rat chow and provided water ad libitum. The animals were acclimatized to laboratory conditions for a week prior to experiments. Diabetes was induced in overnight fasted rats by administration of Streptozotocin (STZ) at dose of 55 mg/kg intraperitoneally in citric acid buffer (pH 4.5). After one hour of STZ administration, the animals were allowed to feed ad libitum. […] Relevant biochemical parameters including serum creatinine, uric acid, alanine aminotransferase (ALT), aspartate aminotransferase (AST), alkaline phosphatase and bilirubin were assessed using colorimetric methods. […] After incubations with secondary antibodies, membranes were washed four times with TBS-T (5 min each) and the immunoreactivity of bands was visualized on a high-performance chemiluminescence machine by using enhanced chemiluminescence plus Luminol and quantified by densitometric analysis using image processing and analysis in GeneTools. As a control, the blots were stripped and detected with a mouse monoclonal anti-β-actin antibody (1:2000). […]

[4] = tested on: tyrosine hydroxylase (TH); assay: Western blot of retinal tyrosine hydroxylase expression in diabetic rats; details: diabetic rat retinas, thymoquinone 2 mg/kg i.p. alternate days, three weeks; FIG. 1B
Experimental: as §2

[5] = tested on: nerve growth factor receptor (NGFR); assay: Western blot of retinal NGFR expression in diabetic rats; details: diabetic rat retinas, thymoquinone 2 mg/kg i.p. alternate days, three weeks; FIG. 1C
Experimental: as §2

cleaved caspase-3 = assay: Western blot of retinal cleaved caspase-3 in diabetic rats; details: diabetic rat retinas, thymoquinone 2 mg/kg i.p. alternate days, three weeks; FIG. 1D
Experimental: as §2

[6] = tested on: reactive oxygen species (ROS); assay: Reactive Oxygen Species (ROS) measurement in retinal tissue homogenates (DCF fluorescence); details: retinas of diabetic animals treated with thymoquinone; FIG. 2
Experimental: as §1, with “Animals showing blood glucose levels >350 mg/dl were considered as diabetic and were used for further trials. Diabetic rats were divided into two groups (10 rats per group) at random. Group I served as diabetic control. Group II were administered thymoquinone (2 mg/kg intraperitoneally) in alternate days for three weeks. Healthy rats were also kept as normal controls.” left out
Reactive Oxygen Species (ROS) generation was measured in retinal tissue homogenates using a 2′,7′-dichlorofluorescein-diacetate (DCHFDA) as is known in the art. […] Fluorescence was measured using a SpectraMax Gemini-XPS every 15 min for 1 hour with excitation and emission wavelengths of 488 nm and 525 nm, respectively.

[7] = tested on: Blood-Retinal Barrier in STZ-Induced Diabetic Rats; assay: Measurement of Blood Retinal Barrier (BRB) breakdown with FITC-conjugated dextran; details: thymoquinone 2 mg/kg on alternate days, compared with diabetic retinas, FIG. 3
Experimental: Healthy Sprague Dawley rats (150-200 g) were used for the trials. Animals were issued from Central Animal House Facility of the College of Pharmacy, King Saud University and were kept in standard plastic animal cages in groups of 6 animals each with 12 hours light and dark cycle at 25±2° C. The rats were fed on standard rat chow and provided water ad libitum. The animals were acclimatized to laboratory conditions for a week prior to experiments. Diabetes was induced in overnight fasted rats by administration of Streptozotocin (STZ) at dose of 55 mg/kg intraperitoneally in citric acid buffer (pH 4.5). After one hour of STZ administration, the animals were allowed to feed ad libitum. […] Relevant biochemical parameters including serum creatinine, uric acid, alanine aminotransferase (ALT), aspartate aminotransferase (AST), alkaline phosphatase and bilirubin were assessed using colorimetric methods. Rat retinas were analyzed for Blood Retinal Barrier (BRB) breakdown after 3 weeks of thymoquinone dosing using fluorescein isothiocyanate (FITC)-conjugated dextran as previously described in the prior art. […] Fluorescence was measured using a Spectra Max Gemini-XPS with excitation and emission wavelengths of 485 nm and 538 nm, respectively, with PBS as a blank. Blood retinal barrier breakdown was calculated using the following equation (1) with the results being expressed in μL g^−1 hr^−1. […]

[8] = diabetic rats treated with TQ 2 mg/kg i.p. on alternate days for three weeks

With `CC1=CC(=O)C(C(C)C)=CC1=O` [thymoquinone, 2-Isopropyl-5-methylbenzo-1,4-quinone] the “Glucose Concentration” value ([1]; after 7 days of TQ treatment) was 580.58 ± 2.40 mg/dL, the “Glucose Concentration” value ([1]; after 14 days of TQ treatment) was 559.55 ± 1.29 mg/dL and the “Glucose Concentration” value ([1]; after 21 days of TQ treatment) was 495.10 ± 5.71 mg/dL. The “kidney and liver function tests versus untreated diabetic animals” value ([2]; diabetic rats that received thymoquinone) was “more normal”, the “ALKALINE Phos” value [2, 8] was 179.08 ± 4.51 U/l and the ALT [2, 8] was 134.43 ± 5.21 U/l. It also gave an AST [2, 8] of 138.48 ± 2.94 U/l, a Bilirubin [2, 8] of 3.23 ± 0.04 mg/dL and a Creatinine [2, 8] of 0.62 ± 0.05 mg/dL. The Uric acid [2, 8] was 4.99 ± 0.07 mg/dL, the “retinal BDNF expression (diabetes-induced down-regulation of about 65%)” value [3] was “normalized” and the “retinal TH levels (diabetes-induced decrease of about 32%)” value [4] was “normalized”. The “retinal NGFR expression (diabetes-induced increase of about 75%)” value [5] was “normalized”, the “retinal cleaved caspase-3 (diabetes-induced up-regulation of about 52%)” value (cleaved caspase-3) was “normalized” and the “ROS generation (DCF retinal levels)” value [6] was “significantly attenuated”. For the same molecule, the “effect of diabetes on BRB breakdown (retinal vascular permeability)” value [7] was “significantly attenuated”.
